These results are taken from US9034819B2, “Method of lowering cholesterol and triglycerides by administering exendins” (Amylin Pharmaceuticals, LLC, priority 2008, dated 2015).

Holding throughout (format): in vivo, human
The subject of one assay is fasting triglycerides. The assay is described as follows: Fasting triglycerides, 30 week study in patients with Type 2 diabetes. As to conditions: decrease from baseline to week 30; SC; once weekly 2 mg or twice daily 10 μg. The protocol: (§1) The pharmacokinetics of a long-acting release formulation of exenatide was evaluated in a study in patients with Type 2 diabetes. The study population consisted of individuals with type 2 diabetes treated with a stable regimen of oral diabetes medications or managed with diet modification and exercise. […] The 30 week study compared a 10 μg formulation of exenatide administered twice daily (BTD) by subcutaneous (SC) injection and a 2 mg formulation of exenatide administered once weekly by subcutaneous (SC) injection. The study was also conducted, inter alia, to examine the effects of such administration on the individual's total cholesterol, LDL-cholesterol, HDL-cholesterol, triglyceride levels, hemoglobin A1C, fasting postprandial blood glucose, and weight. […]
(§2) Exenatide once weekly is a sustained-release formulation of exenatide (exendin-4) designed to provide exenatide release over a period ranging from 7 to 91 days. […] The vial containing the white to off-white dry powder (2.8 mg of exenatide once weekly) was stored frozen in a freezer with a recorded temperature at ≦−20±5° C. at the study site.
(§3) Patients were monitored about every four weeks for body weight, vital signs (including blood pressure, heart rate, respiratory rate, and temperature), urinalysis, and adverse events. […]

A further assay has as its system blood glucose. The assay is described as follows: Fasting postprandial blood glucose, 30 week study in patients with Type 2 diabetes. To be noted: decrease from baseline to week 30; SC; once weekly 2 mg or twice daily 10 μg. The protocol:
(§4) The pharmacokinetics of a long-acting release formulation of exenatide was evaluated in a study in patients with Type 2 diabetes. The study population consisted of individuals with type 2 diabetes treated with a stable regimen of oral diabetes medications or managed with diet modification and exercise. […] The 30 week study compared a 10 μg formulation of exenatide administered twice daily (BTD) by subcutaneous (SC) injection and a 2 mg formulation of exenatide administered once weekly by subcutaneous (SC) injection. The study was also conducted, inter alia, to examine the effects of such administration on the individual's total cholesterol, LDL-cholesterol, HDL-cholesterol, triglyceride levels, hemoglobin A1C, fasting postprandial blood glucose, and weight.
During the 3-day lead-in period, patients self-administered exenatide 5 μg SC, BID, within 15 minutes prior to meals in the morning and evening. […]
as §2

Assay [1] can be described thus: Body weight, 30 week study in patients with Type 2 diabetes. To be noted: weight loss from baseline to week 30, SC, once weekly 2 mg or twice daily 10 μg. The protocol: as §1, §2, §3
The next assay relates to hemoglobin A1C. The assay is described as follows: Hemoglobin A1C by HPLC, 30 week study in patients with Type 2 diabetes. As to conditions: decrease from baseline to week 30; SC; once weekly 2 mg or twice daily 10 μg. The protocol: as §1, §2
Plasma exenatide was quantified by a validated Enzyme-Linked Immunosorbent Assay (ELISA) at Millipore (Billerica, Mass.). […] Glycosylated hemoglobin was quantitated by Quintiles Laboratories (Smyrna, Ga.) using high-performance liquid chromatography. […]

Assay [2] concerns total cholesterol, LDL-cholesterol, HDL-cholesterol. The assay is described as follows: Total, LDL- and HDL-cholesterol, 30 week study in patients with Type 2 diabetes. To be noted: SC. The protocol: as §4
During the 3-day lead-in period, patients self-administered exenatide 5 μg SC, BID, within 15 minutes prior to meals in the morning and evening. The exenatide 5 μg SC, BID used in the 3-day lead-in period was a clear, colorless, sterile preserved solution for SC injection containing exenatide (exendin-4) in sodium acetate buffer, pH 4.5, 4.3% mannitol as an iso-osmolality modifier and 0.22% metacresol as a preservative. The strength of exenatide injection was 0.25 mg/mL of exendin-4.
During the 30-week treatment period, patients received once weekly subcutaneous injections of a 2.0 mg dose pharmaceutical formulation containing 5% exenatide or patient received twice daily subcutaneous injections of exenatide at 10 μg per dose.
as §2, §3

Where [3] appears, read: decrease from baseline to week 30, once weekly 2 mg or twice daily 10 μg.

Turning to “exenatide BID: 10 μg formulation of exenatide (exendin-4) administered twice daily by subcutaneous injection”, in the assay on fasting triglycerides, the “fasting triglycerides decreased by an average of” value was found to be 22 mg/dL. For the same substance, in the assay on blood glucose, the “fasting postprandial blood glucose decreased by an average of” value worked out at 25 mg/dL. In addition, the “body weight decreased by an average of (weight loss)” value in assay [1] was “about 3.6 kg”. In addition, in assay [1] (listed as exenatide twice daily), the “body weight decreased by an average of (weight loss)” value amounted to 3.6 kg. The “HbA1C decreased by an average of” value in the assay on hemoglobin A1C turned out to be 1.5%. Besides, in assay [2] (setting [3]), the “HDL-cholesterol decreased by an average of” value is 1.3 mg/dL and the “total cholesterol decreased by an average of” value amounted to 3.8 mg/dL. The “LDL-cholesterol increased by an average of” value in assay [2] (increase from baseline to week 30, twice daily 10 μg) is on record as 1.2 mg/dL.
